Measured values taken from ChEMBL document CHEMBL1140687, “Quinazoline derivatives as MC-I inhibitors: evaluation of myocardial uptake using Positron Emission Tomography in rat and non-human primate” (Bioorg Med Chem Lett, 2007).

What was measured:
[1] = Inhibition of MC1 by NADH-DB reductase assay; set-up: species or system Homo sapiens
[2] = system: Spleen; assay: Biodistribution in Sprague-Dawley rat spleen at 15 uCi, iv after 30 mins; assay type: ADME, organism-based; details: in vivo, 0.5 h
[3] = system: Rattus norvegicus; assay: Biodistribution in Sprague-Dawley rat urine at 15 uCi, iv after 30 mins; assay type: ADME, organism-based; details: in vivo, 0.5 h
[4] = system: Kidney; assay: Biodistribution in Sprague-Dawley rat kidney at 15 uCi, iv after 30 mins; assay type: ADME, organism-based; details: in vivo, 0.5 h
[5] = system: Muscle tissue; assay: Biodistribution in Sprague-Dawley rat muscle at 15 uCi, iv after 120 mins; assay type: ADME, organism-based; details: in vivo, 2 h
[6] = system: Heart; assay: Biodistribution in Sprague-Dawley rat heart at 15 uCi, iv after 30 mins; assay type: ADME, organism-based; details: in vivo, 0.5 h
[7] = system: Femur; assay: Biodistribution in Sprague-Dawley rat femur at 15 uCi, iv after 120 mins; assay type: ADME, organism-based; details: in vivo, 2 h
[8] = system: Lung; assay: Biodistribution in Sprague-Dawley rat lung at 15 uCi, iv after 30 mins; assay type: ADME, organism-based; details: in vivo, 0.5 h
[9] = system: Liver; assay: Biodistribution in Sprague-Dawley rat liver at 15 uCi, iv after 120 mins; assay type: ADME, organism-based; details: in vivo, 2 h
[10] = system: Liver; assay: Biodistribution in Sprague-Dawley rat liver at 15 uCi, iv after 30 mins; assay type: ADME, organism-based; details: in vivo, 0.5 h
[11] = system: Nucleic Acid; assay: Ratio of drug uptake in heart to liver of Sprague-Dawley rat at 30 mins; assay type: ADME; details: in vivo, 0.5 h
[12] = system: Nucleic Acid; assay: Ratio of drug uptake in heart to lung of Sprague-Dawley rat at 30 mins; assay type: ADME; details: in vivo, 0.5 h
[13] = system: Nucleic Acid; assay: Ratio of drug uptake in heart to lung of Sprague-Dawley rat at 60 mins; assay type: ADME; details: in vivo, 1 h
[14] = system: Femur; assay: Biodistribution in Sprague-Dawley rat femur at 15 uCi, iv after 30 mins; assay type: ADME, organism-based; details: in vivo, 0.5 h
[15] = system: Nucleic Acid; assay: Ratio of drug uptake in heart to femur of Sprague-Dawley rat at 60 mins; assay type: ADME; details: in vivo, 1 h
[16] = system: Heart; assay: Biodistribution in Sprague-Dawley rat heart at 15 uCi, iv after 120 mins; assay type: ADME, organism-based; details: in vivo, 2 h
[17] = system: Blood; assay: Biodistribution in Sprague-Dawley rat blood at 15 uCi, iv after 120 mins; assay type: ADME, organism-based; details: in vivo, 2 h
[18] = system: Muscle tissue; assay: Biodistribution in Sprague-Dawley rat muscle at 15 uCi, iv after 30 mins; assay type: ADME, organism-based; details: in vivo, 0.5 h
[19] = system: Spleen; assay: Biodistribution in Sprague-Dawley rat spleen at 15 uCi, iv after 120 mins; assay type: ADME, organism-based; details: in vivo, 2 h
[20] = system: Rattus norvegicus; assay: Biodistribution in Sprague-Dawley rat urine at 15 uCi, iv after 120 mins; assay type: ADME, organism-based; details: in vivo, 2 h
[21] = system: Lung; assay: Biodistribution in Sprague-Dawley rat lung at 15 uCi, iv after 120 mins; assay type: ADME, organism-based; details: in vivo, 2 h
[22] = system: Blood; assay: Biodistribution in Sprague-Dawley rat blood at 15 uCi, iv after 30 mins; assay type: ADME, organism-based; details: in vivo, 0.5 h
[23] = system: Nucleic Acid; assay: Ratio of drug uptake in heart to liver of Sprague-Dawley rat at 60 mins; assay type: ADME; details: in vivo, 1 h
[24] = system: Kidney; assay: Biodistribution in Sprague-Dawley rat kidney at 15 uCi, iv after 120 mins; assay type: ADME, organism-based; details: in vivo, 2 h

## CC(C)(C)c1ccc(CNc2ncnc3ccccc23)cc1
[1]
  IC50: 241 nM

## OCCCCc1ccc(CCOc2ncnc3ccccc23)cc1
[1]
  IC50: 22.4 nM

## CCCC(O)c1ccc(CCOc2ncnc3ccccc23)cc1 (configuration not stated)
[1]
  IC50: 21.7 nM

## CCCCc1ccc(CCOc2ncnc3ccccc23)cc1
[1]
  IC50: 37.5 nM

## CCCC(F)c1ccc(CCOc2ncnc3ccccc23)cc1 (configuration not stated)
[1]
  IC50: 19.3 nM

## CCCCc1ccc(COc2ncnc3ccccc23)cc1
[1]
  IC50: 1000 nM

## [18F]CCCCCc1ccc(CCOc2ncnc3ccccc23)cc1
[2]
  Drug uptake: 0.19 % ID/g
[3]
  Drug uptake: 0.5 % ID/g
[4]
  Drug uptake: 1.99 % ID/g
[5]
  Drug uptake: 0.12 % ID/g
[6]
  Drug uptake: 3.22 % ID/g
[7]
  Drug uptake: 0.65 % ID/g
[8]
  Drug uptake: 0.28 % ID/g
[9]
  Drug uptake: 0.44 % ID/g
[10]
  Drug uptake: 1.29 % ID/g
[11]
  Ratio: 23
[12]
  Ratio: 11.3
[13]
  Ratio: 2.5
[14]
  Drug uptake: 0.19 % ID/g
[15]
  Ratio: 3.6
[16]
  Drug uptake: 2.5 % ID/g
[17]
  Drug uptake: 0.06 % ID/g
[18]
  Drug uptake: 0.08 % ID/g
[19]
  Drug uptake: 0.07 % ID/g
[20]
  Drug uptake: 4.44 % ID/g
[21]
  Drug uptake: 0.11 % ID/g
[22]
  Drug uptake: 0.08 % ID/g
[23]
  Ratio: 5.7
[24]
  Drug uptake: 0.68 % ID/g

## OCCCCc1ccc(COc2ncnc3ccccc23)cc1
[1]
  IC50: 414 nM

## CC(C)(C)c1ccc(CCOc2ncnc3ccccc23)cc1 [FENAZAQUIN]
[1]
  IC50: 4 nM

## FCCCCCc1ccc(CCOc2ncnc3ccccc23)cc1
[1]
  IC50: 11.3 nM
